In one data set the target is T1, human PAR-1 (Homo sapiens, UniProt P25116).
T1 construct: host or cells: HEK293/Ga15 recombinant cell line
T1 sequence (P25116 22-425): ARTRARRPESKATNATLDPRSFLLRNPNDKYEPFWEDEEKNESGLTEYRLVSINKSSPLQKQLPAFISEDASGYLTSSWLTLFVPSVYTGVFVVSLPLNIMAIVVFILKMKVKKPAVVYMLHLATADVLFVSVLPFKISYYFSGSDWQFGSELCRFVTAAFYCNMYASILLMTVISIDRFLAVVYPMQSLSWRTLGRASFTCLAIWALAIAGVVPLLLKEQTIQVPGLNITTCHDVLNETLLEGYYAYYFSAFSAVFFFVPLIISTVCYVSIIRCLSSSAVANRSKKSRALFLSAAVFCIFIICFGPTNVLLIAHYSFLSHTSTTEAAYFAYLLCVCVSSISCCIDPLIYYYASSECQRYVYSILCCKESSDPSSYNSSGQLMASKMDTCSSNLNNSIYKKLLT
Kind of data set: Inhibitory activity against PAR-1, calcium ion flux fluorescence method (FLIPR). It is filed as cell-based. The conditions noted are these: HEK293/Ga15 cells expressing human PAR-1, TFLLR-NH2 10 μM, starting concentration 30 μM. The procedure: The inhibitory activity of the title compounds against human PAR-1 was determined by a calcium ion flux fluorescence method (an FLIPR method). The method thereof was reported in the literature of Zhong et al. [Zhong et al. J Biomol Struct Dyn, 2017, 35(13):2853].
An HEK293/Ga15 recombinant cell line (HD Biosciences, Shanghai, China) stably expressing human PAR-1 was cultured in a DMEM (Thermo Fisher Scientific, Shanghai) culture solution (containing 10% calf serum, 800 μg/mL G418). Incubator conditions were 37° C. and an air humidity with 5% CO2.
On the first day, 20 μL per well of PAR-1 cells at a concentration of 4E+5 cells/mL were seeded in a 384-well analysis plate (Corning 3712). […] On the second day, a culture solution in each well was poured off. Then, 20 μL of 1×loading dye (2 μM Fluo-8 AM in 1×HBSS with 20 mM HEPES, 1 mM Probenecid, 0.025% Pluronic F-127 assay buffer) was added in each well. The cell analysis plate was cultured for 1 hour at a room temperature.
The compounds were dissolved into 100% DMSO to prepare a 10 mM stock solution, which was stored at −20° C. On the day of use, the compound stock solution was thawed at a room temperature. Each compound was subjected to 1:3 serial dilution at 11 concentration points with a DMEM culture solution with a starting concentration of 30 μM. Each compound was subjected to double dilution for testing. A positive control compound was diluted in the same way with SCH79797 with a starting concentration of 30 μM.
The cell analysis plate was placed in a FLIPR instrument (Molecular Device) and 10 μL of compounds (3× of a final concentration) in a compound plate was added to corresponding wells of the cell analysis plate. After 10 minutes, 10 μL of TFLLR-NH2 (TFA) (a final concentration of 10 μM) was added to each well to stimulate generation of intracellular calcium flux signals. Ca^++-dependent fluorescence signals were continuously monitored at excitation wavelengths of 470/495 nm and emission wavelengths of 515/575 nm to analyze the inhibitory activity of the compounds.
Data were collected and analyzed by using an FLIPR program. The inhibitory (or agonistic) activity of the compounds at each concentration was assessed by fluorescence peaks. IC50 values of the compounds were calculated by using EXCEL and PRISM programs.

Data set [1] in a line: Stability in simulated gastric fluids and simulated intestinal fluids. In kind it is in vitro ADME. To be noted: 1.25 μM, 37° C., up to 5 hours, pH 1.3 with pepsin / pH 6.8 with trypsin; result in words. The procedure: An LC-MS/MS method, wherein A liquid phase method adopts a gradient elution method. Chromatographic Column: ACQUITY UPLC® BEH C18 (2.1 mm×50 mm, 1.7 μm); Flow Rate: 0.35 mL/min; Injection Volume: 1 μL; Column Temperature: 40° C.; Automatic Sampler Temperature: 10° C.; Mobile Phase Compositions: mobile phase A: 0.1% formic acid water, and mobile phase B: acetonitrile. Mass spectrometry conditions adopt an ESI source, and positive ion and multiple reaction monitoring (MRM) modes were used for mass spectrometry analysis.
Simulated gastric fluid and simulated intestinal fluid samples were taken, in which 1,200 μL of an acetonitrile solution containing an internal standard (5 ng/mL loratadine) was added. Even vortex mixing was conducted at 2,500 rpm. Centrifuging was conducted for 10 minutes at 20,000 rcf at 4° C. […] Contents of prototype drugs were detected by LC-MS/MS. […]
MassLynx V4.2 software was used for data collecting. After integration parameters were optimized, target chromatographic peaks were automatically integrated, individual chromatographic peaks were not allowed to be integrated separately or manually, and retention time and a peak area were calculated. Data was collected by MassLynx V4.2, and subjected to integration processing to obtain the retention time and the peak area, and a peak area ratio of an analyte to an internal standard was calculated. […]

Some results are limits rather than exact numbers.

A word on the IC50: it is the concentration that inhibits the measured activity by half. Consider `CCOC(=O)N(C)[C@H]1CN(C(=O)N[C@H](C)c2cnc(C(F)(F)F)nc2)N=C1c1ccc(C)cc1` [Compound 4, (S)-4-(N-methyl-N-ethoxycarbonylamino)-3-(4-methylphenyl)-N-((R)-1-(2-(trifluoromethyl)pyrimidin-5-yl)ethyl)-4,5-dihydro-1H-pyrazol-1-carboxamide], for which the IC50 on human PAR-1 was above 30 µM. Moreover, the “stability in artificial gastric and intestinal fluids” value in data set [1] is recorded as “relatively stable”.

Regarding `Cc1ccc(C2=NN(C(=O)N[C@H](C)c3ccc(C(F)(F)F)nc3)C[C@@H]2N2CCOC2=O)cc1` [Compound 22], the IC50 at human PAR-1 is above 30 µM. For the same molecule, the “stability in artificial gastric and intestinal fluids” value in data set [1] was “relatively stable”.

The values above are taken from patent publication US12668589B2, “N-formamidopyrazoline derivative as P2X3 receptor antagonist and use thereof” (HANGZHOU WESTAN PHARMACEUTICAL TECHNOLOGY CO., LTD, priority 2020, dated 2026).
